Measurements reported in patent US7087762B2, “Long-lasting antimicrobial reaction product of allantoin and formaldehyde containing a low level of free formaldehyde” (ISP Investments Inc., priority 2002, dated 2006).

Legend:
[1] = tested on: Aspergillus niger ATCC 16404; assay: Minimum Inhibitory Concentration (MIC) test, tube dilution, static and cidal; assay type: cell-based; conditions: A. niger
Method: (§1) The measurement of the lowest effective concentration of an anti-microbial or anti-microbial blend is important for recommending use concentrations. The MIC test is an in vitro tube dilution procedure used to identify effective concentrations of anti-microbials. In this test, the experimental compound is diluted by serial concentrations into nutrient culture media. Test organisms are then inoculated into the anti-microbial solutions.
(§2) If the experimental compound is effective, there is no growth observed in the test dilution tubes and they are clear. If the experimental compound is not effective, the test dilution tubes are cloudy, indicating growth. This test will determine static as well as cidal activity concentrations.
(§3) • 1. Laminar flow hood (Baker Sterilgard SG 400) • 2. 18×150 mm culture tubes • 3. Stock antimicrobial solution • 4. Media: Trypticase soy broth (BBL 11043) and AOAC Letheen broth (BBL 10914) • 5. Test organisms: Staphylococcus aureus ATCC 6538, Escherichia coli ATCC 8739, Pseudomonas aeruginosa ATCC 9027, Burkholderia cepacia ATCC 25416, Candida albicans ATCC 10231, and Aspergillus niger ATCC 16404. • 6. Spectrophotometer (Spectronic 20D, Milton Roy)
(§4) • 1. Antimicrobial stock solutions are prepared at predetermined concentrations (i.e., 10% through 0.07%) depending on the test material. Serial doubling dilutions are made as follows. Each culture tube contains 5 mls of trypticase soy broth. Five mls of the stock solution are added to the first tube and vortexed. 5 mls are then removed and placed into the second tube, (and so on, until the last tube). At the final test concentration, 5 mls of the broth/antimicrobial mixture is decanted out. • 2. The test organisms are prepared as with any organism inoculum (MLM 100-3, MLM 100-4, and MLM 100-5). A saline suspension of each organism is prepared. The bacterial organisms and the yeast are a standardized at a concentration of 1×10^6 cfu/ml. The mold inoculum is approximately 1×10^5 cfu/ml. • 3. Inoculate each culture tube with 0.10 mls of organism inoculum and vortex. • 4. Incubate bacterial tubes for 24 hours at 35° C. Incubate yeast or mold tubes for 48 hours at 25° C. Read for growth; turbid tubes for bacteria and yeast; mold clearly visible tubes. This is the minimum inhibitory concentration (static activity). • 5. After the tubes are read, transfer all “clear” tubes and the first cloudy (growth) tube into Letheen broth containing neutralizers. Incubate the Letheen broth tubes for 48 hours at the bacterial or fungal incubation temperatures. Read for growth; turbid tubes for bacteria and yeast; mold clearly visible in mold tubes. This is the cidal activity concentration. Discussion
(§5) The cidal activity of an anti-microbial can be rapidly screened by means of a MIC test before further evaluation tests, such as longer preservative efficacy tests, are performed. This test is a tube serial dilution procedure limited only by the water solubility of the material. Where anti-microbial materials are slightly insoluble, leaving the TSB broth turbid, a procedure modification can be made. Tubes are incubated for 24 hours (bacteria) or 48 hours (fungi) but instead of transfer to Letheen broth, the TSB tubes are streaked onto Letheen agar. The agar plates are then incubated appropriately and then read for absence or presence of growth. Depending on the degree of insolubility, a measure of cidal activity may be the only parameter measured.
(§6) Anti-microbial neutralization is important in this screening test. […] These are to be determined prior to testing.

[2] = tested on: Burkholderia cepacia ATCC 25416; assay: as above; assay type: cell-based; conditions: B. cepacia
Method: as §1, §2, §3, §4, §5, §6

[3] = tested on: Candida albicans ATCC 10231; assay: as above; assay type: cell-based; conditions: C. albicans
Method: as §1, §2, §3, §4, §5, §6

[4] = tested on: Escherichia coli ATCC 8739; assay: as above; assay type: cell-based; conditions: E. coli
Method: as §1, §2, §3, §4, §5, §6

[5] = tested on: Pseudomonas aeruginosa ATCC 9027; assay: as above; assay type: cell-based; conditions: P. aeruginosa
Method: as §1, §2, §3, §4, §5, §6

[6] = tested on: Staphylococcus aureus ATCC 6538; assay: as above; assay type: cell-based; conditions: Staph aureus
Method: as §1, §2, §3, §4, §5, §6

CAN (Candida albicans) = assay: Preservative challenge test, nonionic emulsion; assay type: cell-based
Method: (§7) A typical cosmetic emulsion was prepared for microbiological challenge testing and predetermined admixtures of a methylol compound and IPBC were added at various use levels. The emulsion thus prepared had the following composition:
(§8) The challenge tests were carried out using the following microorganisms: SA, ECOLI, PSA, PC, AN and CAN, in this manner. 50 g aliquots of the test emulsion containing various amounts of the preservative admixture were inoculated with approximately 10^7–10^8 of the challenge organisms. The test samples then were stirred to disperse the challenge inoculum. The samples were incubated and assayed at 48 hours, 7, 14, 21 and 28 days. The assays were performed on 1 g of the test sample by serially diluting 10^1 to 10^6 of the original concentration. The plating medium for bacteria was Letheen agar and for fungi it was low pH Mycophil agar with Tween 20. Each plated sample was incubated for 48 hours at 37° C. for bacteria, 5 days at 25° C. for mold, and 3 days at 25° C. for fungi. After incubation, readings of the number of colonies per milliliter (cfu/ml) were made. At 21 days the test product was reinoculated with half of the original inoculum.

[7] = tested on: EC (ECOLI, Escherichia coli); assay: Preservative challenge test, nonionic emulsion; assay type: cell-based
Method: as §7, §8

[8] = tested on: SA (Staphylococcus aureus); assay: Preservative challenge test, nonionic emulsion; assay type: cell-based
Method: as §7, §8

BC (B. cepacia) = assay: Preservative challenge test, nonionic emulsion; assay type: cell-based, Burkholderia cepacia
Method: as §7, §8

Compound: O=C1C(N(CO)C(=O)NCO)N(CO)C(=O)N1CO (stereo not shown) [Germall II]
- CIDAL (cidal activity concentration) [1]: 2500 ppm
- STATIC (minimum inhibitory concentration) [1]: 2500 ppm
- CIDAL (cidal activity concentration) [2]: 600 ppm
- STATIC (minimum inhibitory concentration) [2]: 150 ppm
- CIDAL (cidal activity concentration) [3]: >5000 ppm
- STATIC (minimum inhibitory concentration) [3]: 5000 ppm
- CIDAL (cidal activity concentration) [4]: 1250 ppm
- STATIC (minimum inhibitory concentration) [4]: 600 ppm
- CIDAL (cidal activity concentration) [5]: 1250 ppm
- STATIC (minimum inhibitory concentration) [5]: 600 ppm
- CIDAL (cidal activity concentration) [6]: 1250 ppm
- STATIC (minimum inhibitory concentration) [6]: 300 ppm
- cfu/ml, 48 hrs (CAN (Candida albicans); 2000 ppm): 320,000 cfu/ml
- cfu/ml, 7 days (CAN (Candida albicans); 2000 ppm): 720,000 cfu/ml
- cfu/ml, 14 days (CAN (Candida albicans); 2000 ppm): 650,000 cfu/ml
- cfu/ml, 21 days (CAN (Candida albicans); 2000 ppm): 730,000 cfu/ml
- cfu/ml, 28 days (CAN (Candida albicans); 2000 ppm): >1E6 cfu/ml
- cfu/ml, 48 hrs (CAN (Candida albicans); 4000 ppm): 50 cfu/ml
- cfu/ml, 7 days (CAN (Candida albicans); 4000 ppm): 10,000 cfu/ml
- cfu/ml, 14 days (CAN (Candida albicans); 4000 ppm): 620,000 cfu/ml
- cfu/ml, 21 days (CAN (Candida albicans); 4000 ppm): 460,000 cfu/ml
- cfu/ml, 28 days (CAN (Candida albicans); 4000 ppm): >1E6 cfu/ml
- cfu/ml, 48 hrs ([7]; 2000 ppm): <10 cfu/ml
- cfu/ml, 7 days ([7]; 2000 ppm): <10 cfu/ml
- cfu/ml, 14 days ([7]; 2000 ppm): <10 cfu/ml
- cfu/ml, 21 days ([7]; 2000 ppm): <10 cfu/ml
- cfu/ml, 28 days ([7]; 2000 ppm): <10 cfu/ml
- cfu/ml, 48 hrs ([7]; 4000 ppm): <10 cfu/ml
- cfu/ml, 7 days ([7]; 4000 ppm): <10 cfu/ml
- cfu/ml, 14 days ([7]; 4000 ppm): <10 cfu/ml
- cfu/ml, 21 days ([7]; 4000 ppm): <10 cfu/ml
- cfu/ml, 28 days ([7]; 4000 ppm): <10 cfu/ml
- cfu/ml, 48 hrs ([8]; 2000 ppm): <10 cfu/ml
- cfu/ml, 7 days ([8]; 2000 ppm): <10 cfu/ml
- cfu/ml, 14 days ([8]; 2000 ppm): <10 cfu/ml
- cfu/ml, 21 days ([8]; 2000 ppm): <10 cfu/ml
- cfu/ml, 28 days ([8]; 2000 ppm): <10 cfu/ml
- cfu/ml, 48 hrs ([8]; 4000 ppm): <10 cfu/ml
- cfu/ml, 7 days ([8]; 4000 ppm): <10 cfu/ml
- cfu/ml, 14 days ([8]; 4000 ppm): <10 cfu/ml
- cfu/ml, 21 days ([8]; 4000 ppm): <10 cfu/ml
- cfu/ml, 28 days ([8]; 4000 ppm): <10 cfu/ml
- cfu/ml, 48 hrs (BC (B. cepacia); 2000 ppm): <10 cfu/ml
- cfu/ml, 7 days (BC (B. cepacia); 2000 ppm): <10 cfu/ml
- cfu/ml, 14 days (BC (B. cepacia); 2000 ppm): <10 cfu/ml
- cfu/ml, 21 days (BC (B. cepacia); 2000 ppm): <10 cfu/ml
- cfu/ml, 28 days (BC (B. cepacia); 2000 ppm): <10 cfu/ml
- cfu/ml, 48 hrs (BC (B. cepacia); 4000 ppm): <10 cfu/ml
- cfu/ml, 7 days (BC (B. cepacia); 4000 ppm): <10 cfu/ml
- cfu/ml, 14 days (BC (B. cepacia); 4000 ppm): <10 cfu/ml
- cfu/ml, 21 days (BC (B. cepacia); 4000 ppm): <10 cfu/ml
- cfu/ml, 28 days (BC (B. cepacia); 4000 ppm): <10 cfu/ml
